# Laboratory results: US20100266694A1, “Chitosan/Carbon Nanotube Composite Scaffolds for Drug Delivery” (priority 2009, published 2010)
# Columns and labels:
# [1] = test system: Pseudomonas aeruginosa; test: Turbidity test of amikacin eluates for bactericidal activity; assay type: cell-based; settings: amikacin eluates from constructs against Pseudomonas aeruginosa
# Procedure: (§1) Eluates taken from constructs of these different types were tested for bactericidal activity in turbidity tests against appropriate strains of bacteria: amikacin eluates against Pseudomonas aeruginosa and vancomycin eluates against Staphylococcus aureus. Eluates were added to trypticase soy broth in a 1:10 dilution. Broth was then inoculated with bacteria and then incubated overnight at 37° C. Absorbance of these solutions (turbidity) was used as an indicator of bacterial growth. Percent inhibition of bacterial growth is calculated from these measurements.
# [2] = test system: Staphylococcus aureus; test: Turbidity test of vancomycin eluates for bactericidal activity; assay type: cell-based; settings: vancomycin eluates from constructs against Staphylococcus aureus
# Procedure: as §1
SMILES,time up to which elution is inhibitory [1],time up to which elution is inhibitory [2]
NCC[C@H](O)C(=O)N[C@@H]1C[C@H](N)[C@@H](O[C@H]2O[C@H](CN)[C@@H](O)[C@H](O)[C@H]2O)[C@H](O)[C@H]1O[C@H]1O[C@H](CO)[C@@H](O)[C@H](N)[C@H]1O [amikacin],up to 24 hours,–
CN[C@H](CC(C)C)C(=O)N[C@H]1C(=O)N[C@@H](CC(N)=O)C(=O)N[C@H]2C(=O)N[C@H]3C(=O)N[C@H](C(=O)N[C@H](C(=O)O)c4cc(O)cc(O)c4-c4cc3ccc4O)[C@H](O)c3ccc(c(Cl)c3)Oc3cc2cc(c3O[C@@H]2O[C@H](CO)[C@@H](O)[C@H](O)[C@H]2O[C@H]2C[C@](C)(N)[C@H](O)[C@H](C)O2)Oc2ccc(cc2Cl)[C@H]1O [vancomycin],–,up to 48 hours
